IC50 data for 29 molecules are collected here from patent publication US20240360151A1 (SANOFI, priority 2023, published 2024).

The target of one assay is T1, NLRP3 inflammasome (Homo sapiens, UniProt Q96P20).
T1 construct: endogenous in cells; host or cells: THP-1 monocytic cells
The assay is described as follows: IL-1β secretion assay (NLRP3 IC50) in LPS-primed, nigericin-activated THP-1 cells, HTRF. As to conditions: monocytic THP-1 cells; LPS 10 ng/mL 3 h priming, then compound + nigericin 10 μM 2 h; relative IC50, 10 concentrations, geometric mean. Format: cell-based. The gist of the method: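 IL-1β in supernatant read by HTRF after 2 h co-incubation of compound (0.1% DMSO, 10 concentrations, 1:3 series) with nigericin at 10 μM final, following 3 h LPS (10 ng/mL) priming of THP-1 monocytes at 37° C. Inhibition normalised to unactivated and no-compound controls; geometric-mean relative IC50 from 4-parameter logistic model.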
In general terms: Time-resolved FRET reads energy transfer from a long-lived donor to a nearby acceptor.

Assay [1] has as its system NF-kB pathway (TNF-α secretion by THP-1 cells). Briefly: TNF-α secretion assay in LPS-stimulated THP-1 cells, Lumit immunoassay. Format: cell-based, human. As to conditions: Homo sapiens, THP-1, 3 h, monocytic THP-1 cells, LPS 10 ng/mL, relative IC50, 10 concentrations, geometric mean. The gist of the method:
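TNF-α release was quantified directly in the cell plate by Lumit immunoassay after a 3-h, 10 ng/mL LPS trigger of compound-treated THP-1 cells (RPMI, 5% FBS). Percent inhibition versus no-compound and unstimulated controls fed a 4-parameter logistic fit over 10 concentrations, giving geometric-mean relative IC50.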

T1 sequence (Q96P20 whole entry): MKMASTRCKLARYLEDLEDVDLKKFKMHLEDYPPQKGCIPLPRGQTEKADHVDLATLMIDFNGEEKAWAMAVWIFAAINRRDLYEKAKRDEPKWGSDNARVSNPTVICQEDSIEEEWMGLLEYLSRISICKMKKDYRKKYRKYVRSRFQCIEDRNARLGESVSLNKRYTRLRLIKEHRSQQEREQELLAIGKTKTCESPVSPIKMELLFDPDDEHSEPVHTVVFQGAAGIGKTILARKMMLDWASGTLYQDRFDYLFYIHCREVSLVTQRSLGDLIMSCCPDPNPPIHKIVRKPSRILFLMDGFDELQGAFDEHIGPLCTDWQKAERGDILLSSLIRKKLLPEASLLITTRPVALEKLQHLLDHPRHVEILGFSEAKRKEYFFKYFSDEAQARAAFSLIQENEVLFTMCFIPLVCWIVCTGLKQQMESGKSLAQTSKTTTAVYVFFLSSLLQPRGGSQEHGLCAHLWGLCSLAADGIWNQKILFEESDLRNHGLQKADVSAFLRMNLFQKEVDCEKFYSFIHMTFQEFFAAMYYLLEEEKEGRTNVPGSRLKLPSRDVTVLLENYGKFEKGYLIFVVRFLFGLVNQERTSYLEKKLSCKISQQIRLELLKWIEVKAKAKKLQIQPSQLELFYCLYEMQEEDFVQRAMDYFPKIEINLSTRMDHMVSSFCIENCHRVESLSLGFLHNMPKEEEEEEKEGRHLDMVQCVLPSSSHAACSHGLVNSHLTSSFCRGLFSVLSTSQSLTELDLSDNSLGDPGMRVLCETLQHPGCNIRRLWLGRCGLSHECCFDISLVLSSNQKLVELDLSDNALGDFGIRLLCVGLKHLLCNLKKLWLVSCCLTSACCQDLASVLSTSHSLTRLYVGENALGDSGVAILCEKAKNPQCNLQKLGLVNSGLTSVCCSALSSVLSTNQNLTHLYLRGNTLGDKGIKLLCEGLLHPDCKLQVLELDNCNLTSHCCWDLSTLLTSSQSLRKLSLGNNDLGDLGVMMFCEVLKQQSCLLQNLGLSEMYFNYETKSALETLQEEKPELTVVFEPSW

Consider `[2H]C([2H])(O)[C@@H]1CN(c2ccc(-c3c(C)cc(C(F)(F)F)cc3O)nn2)CCO1` [Example 192, 2-[6-[(2S)-2-[dideuterio(hydroxy)methyl]morpholin-4-yl]pyridazin-3-yl]-3-methyl-5-(trifluoromethyl)phenol], for which the concentration for half-maximal inhibition (IC50) (commonly the concentration that gives 50% inhibition) is 11 nM on NLRP3 inflammasome and more than 10000 nM in assay [1].
As for `CC(=O)N1CC[C@H]2OCCN(c3cc(C)c(-c4ccc(Cl)cc4O)nn3)[C@H]2C1` [Example 357, 1-[(4aS,8aR)-4-[6-(4-chloro-2-hydroxy-phenyl)-5-methyl-pyridazin-3-yl]-3,4a,5,7,8,8a-hexahydro-2H-pyrido[4,3-b][1,4]oxazin-6-yl]ethanone], the IC50 was 48 nM on NLRP3 inflammasome and more than 10000 nM in assay [1].
The corresponding values for `CCc1cccc(O)c1-c1ccc(N2CCO[C@@H]3CCN(CC)C[C@@H]32)nn1` [Example 408, 2-[6-[(4aS,8aR)-6-ethyl-3,4a,5,7,8,8a-hexahydro-2H-pyrido[4,3-b][1,4]oxazin-4-yl]pyridazin-3-yl]-3-ethyl-phenol] are 2 nM and more than 10000 nM.
With `CCc1cccc(O)c1-c1ccc(N2CC[C@@H]3CCN(C)C[C@@H]32)nn1` (racemic) [Example 388, 3-ethyl-2-[6-[rac-(3aS,7aR)-6-methyl-3,3a,4,5,7,7a-hexahydro-2H-pyrrolo[2,3-c]pyridin-1-yl]pyridazin-3-yl]phenol], the results for the 50% inhibitory concentration (IC50) (on NLRP3 inflammasome; in assay [1]) were 1 nM and more than 10000 nM, respectively.
`Cc1cc(C)c(-c2ccc(N3CCO[C@H]4CCN(C)C[C@H]43)nn2)c(O)c1` (racemic) [Example 225, 2-[6-[rac-(4aR,8aS)-6-methyl-3,4a,5,7,8,8a-hexahydro-2H-pyrido[4,3-b][1,4]oxazin-4-yl]pyridazin-3-yl]-3,5-dimethyl-phenol]: the IC50 was 3 nM on NLRP3 inflammasome and more than 10000 nM in assay [1].
For `OC[C@@H]1CN(c2nnc(-c3ccc(Cl)cc3O)c3c2CCC3)CCO1` [Example 78, 5-chloro-2-[4-[(2S)-2-(hydroxymethyl)morpholin-4-yl]-6,7-dihydro-5H-cyclopenta[d]pyridazin-1-yl]phenol], in that order: 436 nM and more than 10000 nM.
For the molecule `CC(=O)NC[C@@H]1CCCN(c2ccc(-c3c(C)cc(C(F)(F)F)cc3O)nn2)C1` [Example 164, N-[[(3S)-1-[6-[2-hydroxy-6-methyl-4-(trifluoromethyl)phenyl]pyridazin-3-yl]-3-piperidyl]methyl]acetamide], the half-maximal inhibitory concentration (IC50) is 81 nM on NLRP3 inflammasome and more than 10000 nM in assay [1].
For `Cc1cc(C(F)(F)F)cc(O)c1-c1ccc(N2CCO[C@H](CO)C2)nn1` [Example 16, 2-[6-[(2S)-2-(hydroxymethyl)morpholin-4-yl]pyridazin-3-yl]-3-methyl-5-(trifluoromethyl)phenol], in that order: 25 nM and more than 10000 nM.
For the molecule `Cc1cc(C(F)(F)F)cc(O)c1-c1ccc(N2CCN(C)CC2)nn1` [Example 29, 3-methyl-2-[6-(4-methylpiperazin-1-yl)pyridazin-3-yl]-5-(trifluoromethyl)phenol], the half-maximal inhibitory concentration (IC50) on NLRP3 inflammasome was 332 nM; in assay [1], more than 10000 nM.
For `Cc1cc(C)c(-c2ccc(N3CCCc4cccc(O)c43)nn2)c(O)c1` [Example 231, 1-[6-(2-hydroxy-4,6-dimethyl-phenyl)pyridazin-3-yl]-3,4-dihydro-2H-quinolin-8-ol], in that order: 219 nM and more than 10000 nM.
Consider `NC[C@@H]1CCN(c2ccc(-c3c(O)cc(Cl)cc3Cl)nn2)C1` [Example 23, 2-[6-[(3S)-3-(aminomethyl)pyrrolidin-1-yl]pyridazin-3-yl]-3,5-dichloro-phenol], for which the concentration for half-maximal inhibition (IC50) was 192 nM on NLRP3 inflammasome and more than 10000 nM in assay [1].
For `CCc1cc(C)cc(O)c1-c1ccc(N2CCO[C@H](CO)C2)nn1` [Example 246, 3-ethyl-2-[6-[(2S)-2-(hydroxymethyl)morpholin-4-yl]pyridazin-3-yl]-5-methylphenol], in that order: 12 nM and more than 10000 nM.
Regarding `CC(=O)N1CC[C@@H]2OCCN(c3ccc(-c4c(C)cc(C)cc4O)nn3)[C@@H]2C1` (racemic) [Example 213, 1-[rac-(4aR,8aS)-4-[6-(2-hydroxy-4,6-dimethyl-phenyl)pyridazin-3-yl]-3,4a,5,7,8,8a-hexahydro-2H-pyrido[4,3-b][1,4]oxazin-6-yl]ethanone], the half-inhibitory concentration (IC50) at NLRP3 inflammasome is 115 nM; in assay [1] it was more than 10000 nM.
As for `Cc1cc(O)c(-c2nnc(N3CCO[C@H](CO)C3)cc2C)c(Cl)c1` [Example 177, 3-chloro-2-[6-[(2S)-2-(hydroxymethyl)morpholin-4-yl]-4-methyl-pyridazin-3-yl]-5-methyl-phenol], the figures for the IC50 (at NLRP3 inflammasome; in assay [1]) were 91 nM and 7380 nM, respectively.
For `Oc1cc(Cl)cc(Cl)c1-c1ccc(N2CCC3(CC2)COC3)nn1` [Example 66, 3,5-dichloro-2-[6-(2-oxa-7-azaspiro[3.5]nonan-7-yl)pyridazin-3-yl]phenol], in that order: 304 nM and more than 10000 nM.
Regarding `Cc1cc(C(F)(F)F)cc(O)c1-c1ccc(N2CCC[C@H](CO)C2)nn1` [Example 28, 2-[6-[(3S)-3-(hydroxymethyl)-1-piperidyl]pyridazin-3-yl]-3-methyl-5-(trifluoromethyl)phenol], the figures for the concentration for half-maximal inhibition (IC50) (at NLRP3 inflammasome; in assay [1]) were 109 nM and more than 10000 nM, respectively.
With `CCc1cccc(O)c1-c1ccc(N2CC[C@H]3CCN(C)C[C@H]32)nn1` (single isomer, unassigned) [Example 423], the 50% inhibitory concentration (IC50) at NLRP3 inflammasome was 0.48 nM; in assay [1] it was more than 10000 nM.
As for `Cc1cc(Cl)cc(O)c1-c1ccc(N2CCO[C@H]3CCNC[C@H]32)nn1` (racemic) [Example 221, 2-[6-[rac-(4aR,8aS)-2,3,4a,5,6,7,8,8a-octahydropyrido[4,3-b][1,4]oxazin-4-yl]pyridazin-3-yl]-5-chloro-3-methyl-phenol], the IC50 was 18 nM at NLRP3 inflammasome and more than 10000 nM in assay [1].
For the molecule `CCN1CC[C@H]2OCCN(c3ccc(-c4c(C)cc(C(F)(F)F)cc4O)nn3)[C@H]2C1` (single isomer, unassigned) [Example 256], the IC50 was 1 nM at NLRP3 inflammasome and more than 10000 nM in assay [1].
The corresponding values for `Cc1cc(C(F)(F)F)cc(O)c1-c1ccc(N2CCCC(CO)C2=O)nn1` (stereo not shown) [Example 273, 3-(hydroxymethyl)-1-[6-[2-hydroxy-6-methyl-4-(trifluoromethyl)phenyl]pyridazin-3-yl]piperidin-2-one] are 456 nM and more than 10000 nM.
On to `Cc1cc(C(F)(F)F)cc(O)c1-c1ccc(N2CCOC(C(C)(C)O)C2)nn1` (single isomer, unassigned) [Example 53, 2-[6-[2-(1-hydroxy-1-methyl-ethyl)morpholin-4-yl]pyridazin-3-yl]-3-methyl-5-(trifluoromethyl)phenol], for which the values for the IC50 (on NLRP3 inflammasome; in assay [1]) were 275 nM and more than 10000 nM, respectively.
Regarding `CCN1CC[C@@H]2OCCN(c3ccc(-c4c(C)cc(C)cc4O)nn3)[C@@H]2C1` (racemic) [Example 209, 2-[6-[rac-(4aR,8aS)-6-ethyl-3,4a,5,7,8,8a-hexahydro-2H-pyrido[4,3-b][1,4]oxazin-4-yl]pyridazin-3-yl]-3,5-dimethyl-phenol], the IC50 at NLRP3 inflammasome is 2 nM; in assay [1], more than 10000 nM.
For `Cc1cc(C)c(-c2ccc(N3CC[C@H](O)C3)nn2)c(O)c1` [Example 71, (3S)-1-[6-(2-hydroxy-4,6-dimethyl-phenyl)pyridazin-3-yl]pyrrolidin-3-ol], in that order: 270 nM and more than 10000 nM.
The corresponding values for `Cc1cc(C(F)(F)F)cc(O)c1-c1nnc(N2C[C@@H](O)CC2=O)cc1C(F)F` [Example 372, (4S)-1-[5-(difluoromethyl)-6-[2-hydroxy-6-methyl-4-(trifluoromethyl)phenyl]pyridazin-3-yl]-4-hydroxy-pyrrolidin-2-one] are 94 nM and more than 10000 nM.
For `Cc1cc(C)c(-c2ccc(N3CCO[C@@H]4CCN(C(C)C)C[C@@H]43)nn2)c(O)c1` [Example 433, 2-[6-[(4aS,8aR)-6-isopropyl-3,4a,5,7,8,8a-hexahydro-2H-pyrido[4,3-b][1,4]oxazin-4-yl]pyridazin-3-yl]-3,5-dimethyl-phenol], in that order: 2 nM and more than 10000 nM.
Take `Cc1cc(Cl)cc(O)c1-c1ccc(N2CCO[C@H]3CCNC[C@H]32)nn1` [Example 308, 2-[6-[(4aR,8aS)-2,3,4a,5,6,7,8,8a-octahydropyrido[4,3-b][1,4]oxazin-4-yl]pyridazin-3-yl]-5-chloro-3-methyl-phenol]: the results for the half-inhibitory concentration (IC50) (at NLRP3 inflammasome; in assay [1]) were 9 nM and more than 10000 nM, respectively.
For `OC[C@@H]1CN(c2cc(C(F)F)c(-c3ccc(C(F)(F)F)cc3O)nn2)CCO1` [Example 247, 2-[4-(difluoromethyl)-6-[(2S)-2-(hydroxymethyl)morpholin-4-yl]pyridazin-3-yl]-5-(trifluoromethyl)phenol], the IC50 is 168 nM on NLRP3 inflammasome and more than 10000 nM in assay [1].
For `Cc1cc(C)c(-c2cc(C)c(N3CCO[C@@H]4CCN(C)C[C@@H]43)nn2)c(O)c1` [Example 434, 2-[6-[(4aS,8aR)-6-methyl-3,4a,5,7,8,8a-hexahydro-2H-pyrido[4,3-b][1,4]oxazin-4-yl]-5-methyl-pyridazin-3-yl]-3,5-dimethyl-phenol], in that order: 42 nM and more than 10000 nM.
As to `Cc1cccc(O)c1-c1ccc(N2CCO[C@H]3CCN(C)C[C@H]32)nn1` [Example 299, 2-[6-[(4aR,8aS)-6-methyl-3,4a,5,7,8,8a-hexahydro-2H-pyrido[4,3-b][1,4]oxazin-4-yl]pyridazin-3-yl]-3-methyl-phenol], the IC50 on NLRP3 inflammasome was 15 nM; in assay [1], more than 10000 nM.
